{
  "source": "ChEMBL document CHEMBL1201862",
  "about": "“PubChem BioAssay data set” (2004)",
  "key": {"[1]": {"assay": "intracellular Trypanosoma cruzi inhibitors in host cells – cell-based, plate reader, cherry-pick samples, set 3, dose response (AID 651818);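 further: compounds incubated with infected cells for about four days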", "format": "functional"}, "Cytochrome P450 2C19": {"molecular_target": "Cytochrome P450 2C19 (Homo sapiens, UniProt P33261)", "sequence (P33261 whole entry)": "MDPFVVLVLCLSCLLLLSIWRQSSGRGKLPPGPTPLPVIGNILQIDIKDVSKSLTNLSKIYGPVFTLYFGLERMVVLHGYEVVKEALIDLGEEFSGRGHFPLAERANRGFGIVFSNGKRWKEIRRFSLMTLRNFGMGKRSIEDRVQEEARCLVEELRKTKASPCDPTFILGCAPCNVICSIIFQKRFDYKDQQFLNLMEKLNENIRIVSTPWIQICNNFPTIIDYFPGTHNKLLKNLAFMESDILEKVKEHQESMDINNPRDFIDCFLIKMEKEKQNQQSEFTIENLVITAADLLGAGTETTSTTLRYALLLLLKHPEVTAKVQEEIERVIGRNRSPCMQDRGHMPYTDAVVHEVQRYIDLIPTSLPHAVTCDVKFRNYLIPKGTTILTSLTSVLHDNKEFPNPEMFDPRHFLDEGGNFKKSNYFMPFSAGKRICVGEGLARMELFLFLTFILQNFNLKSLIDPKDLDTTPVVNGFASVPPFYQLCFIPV", "assay": "Cytochrome panel assay with activity outcomes. Panel member name: p450-cyp2c19 Compounds with AC50 equal or less than 10 uM are considered active", "format": "functional", "details": "read-out: AC50"}, "Cytochrome P450 1A2": {"molecular_target": "T1, Cytochrome P450 1A2 (Homo sapiens, UniProt P05177)", "T1 sequence (P05177 whole entry)": "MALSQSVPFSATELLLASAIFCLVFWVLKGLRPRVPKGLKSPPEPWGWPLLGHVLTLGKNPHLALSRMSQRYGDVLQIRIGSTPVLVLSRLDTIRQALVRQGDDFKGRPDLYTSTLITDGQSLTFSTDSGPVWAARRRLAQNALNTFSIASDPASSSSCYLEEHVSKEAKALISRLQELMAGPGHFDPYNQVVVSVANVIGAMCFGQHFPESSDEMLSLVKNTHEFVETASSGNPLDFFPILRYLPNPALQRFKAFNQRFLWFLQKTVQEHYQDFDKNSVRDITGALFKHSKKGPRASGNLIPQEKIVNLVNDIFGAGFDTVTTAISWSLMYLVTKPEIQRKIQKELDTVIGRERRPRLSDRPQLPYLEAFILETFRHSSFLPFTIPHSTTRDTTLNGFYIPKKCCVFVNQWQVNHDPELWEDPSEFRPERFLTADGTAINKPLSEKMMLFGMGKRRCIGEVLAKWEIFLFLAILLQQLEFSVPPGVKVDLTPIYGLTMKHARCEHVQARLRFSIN"}, "Cytochrome P450 2D6": {"molecular_target": "Cytochrome P450 2D6 (Homo sapiens, UniProt P10635)", "sequence (P10635 whole entry)": "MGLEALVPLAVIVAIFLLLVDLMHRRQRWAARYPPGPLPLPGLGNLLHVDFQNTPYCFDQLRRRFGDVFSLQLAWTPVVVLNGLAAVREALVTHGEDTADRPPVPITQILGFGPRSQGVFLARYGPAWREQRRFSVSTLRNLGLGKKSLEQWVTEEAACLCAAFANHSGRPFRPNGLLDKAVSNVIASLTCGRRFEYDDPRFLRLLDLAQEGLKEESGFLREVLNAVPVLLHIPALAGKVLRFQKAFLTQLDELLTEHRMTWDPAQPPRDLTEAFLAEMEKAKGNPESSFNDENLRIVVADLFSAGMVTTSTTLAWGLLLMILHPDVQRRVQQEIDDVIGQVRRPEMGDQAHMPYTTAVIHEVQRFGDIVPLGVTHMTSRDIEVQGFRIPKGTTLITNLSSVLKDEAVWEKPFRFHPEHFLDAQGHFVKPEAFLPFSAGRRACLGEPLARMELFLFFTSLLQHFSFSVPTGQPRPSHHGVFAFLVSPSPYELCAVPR"}, "[2]": {"assay": "growth suppression of beta-catenin-knockout colon cells, dose response, cell-based, HCT116, human colon tumor (AID 1045);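 further: cells exposed to compound for 60 hours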", "format": "functional"}, "INS1": {"system": "INS1", "assay": "beta cell apoptosis inhibitors, cytokine rescue, dose response, luminescence, retest (AID 449756);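 further: cell death triggered by IL-1 beta plus TNF-alpha plus IFN-gamma mixture; protective hits raise ATP signal compared with cytokine alone wells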", "format": "functional, cell-based", "details": "Rattus norvegicus"}, "[3]": {"assay": "microbe, parasite or virus in culture", "format": "functional", "details": "Mycobacterium tuberculosis"}, "BJ [4]": {"system": "BJ", "assay": "cytotoxicity toward Ras-transformed BJeLR fibroblasts, dose response, cell-based, alamar blue fluorescence, cherrypicked samples (AID 2631)", "format": "functional", "details": "Homo sapiens"}, "[5]": {"assay": "growth suppression of PTEN-null colon cells, dose response, cell-based, HCT116 PTEN knockout (AID 1047);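 further: cells exposed to compound for 60 hours before readout; potency for loss of cell viability measured by luminescence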", "format": "functional"}, "Cytochrome P450 3A4": {"molecular_target": "Cytochrome P450 3A4 (Homo sapiens, UniProt P08684)", "sequence (P08684 whole entry)": "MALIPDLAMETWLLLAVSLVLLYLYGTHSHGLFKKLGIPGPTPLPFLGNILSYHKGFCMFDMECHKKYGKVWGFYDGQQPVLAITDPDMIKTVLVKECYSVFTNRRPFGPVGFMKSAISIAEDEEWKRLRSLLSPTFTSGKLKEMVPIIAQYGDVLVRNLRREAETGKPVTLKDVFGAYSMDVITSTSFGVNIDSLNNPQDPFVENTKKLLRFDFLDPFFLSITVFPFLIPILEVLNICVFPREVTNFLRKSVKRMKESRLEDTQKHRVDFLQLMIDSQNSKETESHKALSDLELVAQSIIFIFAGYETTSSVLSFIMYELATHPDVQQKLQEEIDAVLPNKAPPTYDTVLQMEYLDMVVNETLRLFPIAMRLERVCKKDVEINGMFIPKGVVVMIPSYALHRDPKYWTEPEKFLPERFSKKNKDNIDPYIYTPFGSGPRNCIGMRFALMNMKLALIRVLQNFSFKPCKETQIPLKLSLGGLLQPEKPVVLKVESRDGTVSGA"}, "[6]": {"assay": "Shn3 3'UTR reporter inhibitors, dose response, cell-based, Clone20 osteoblasts, firefly luciferase, cherry-picked (AID 624132)", "format": "functional"}, "[7]": {"assay": "control 3'UTR Renilla luciferase suppression, dose response, counter-screen for Shn3 inhibitor project, cell-based, Clone20-Shn3RL, cherry-picked (AID 624133)", "format": "functional"}, "Protein Wnt-3a": {"molecular_target": "Protein Wnt-3a (Mus musculus, UniProt P27467)", "sequence (P27467 whole entry)": "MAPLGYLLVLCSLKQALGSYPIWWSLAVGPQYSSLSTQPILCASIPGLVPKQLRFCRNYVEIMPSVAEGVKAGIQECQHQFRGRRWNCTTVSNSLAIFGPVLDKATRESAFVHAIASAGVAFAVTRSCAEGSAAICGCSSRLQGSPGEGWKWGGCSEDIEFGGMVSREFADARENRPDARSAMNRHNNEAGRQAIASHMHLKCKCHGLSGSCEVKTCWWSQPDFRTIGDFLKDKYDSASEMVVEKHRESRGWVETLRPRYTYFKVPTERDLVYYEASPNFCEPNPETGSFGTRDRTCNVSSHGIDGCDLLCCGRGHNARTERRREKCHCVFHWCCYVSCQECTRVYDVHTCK", "assay": "Wnt3a-driven reporter signaling inhibition, dose response, selectivity assay for Gli-SUFU antagonist project, Wnt-LIGHT cells, luminescence (AID 651570);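 further: Wnt-LIGHT reporter cells stimulated with conditioned medium from Wnt3a-producing cells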", "format": "functional", "details": "read-out: IC50_Mean"}, "Cytochrome P450 2C9": {"molecular_target": "Cytochrome P450 2C9 (Homo sapiens, UniProt P11712)", "sequence (P11712 whole entry)": "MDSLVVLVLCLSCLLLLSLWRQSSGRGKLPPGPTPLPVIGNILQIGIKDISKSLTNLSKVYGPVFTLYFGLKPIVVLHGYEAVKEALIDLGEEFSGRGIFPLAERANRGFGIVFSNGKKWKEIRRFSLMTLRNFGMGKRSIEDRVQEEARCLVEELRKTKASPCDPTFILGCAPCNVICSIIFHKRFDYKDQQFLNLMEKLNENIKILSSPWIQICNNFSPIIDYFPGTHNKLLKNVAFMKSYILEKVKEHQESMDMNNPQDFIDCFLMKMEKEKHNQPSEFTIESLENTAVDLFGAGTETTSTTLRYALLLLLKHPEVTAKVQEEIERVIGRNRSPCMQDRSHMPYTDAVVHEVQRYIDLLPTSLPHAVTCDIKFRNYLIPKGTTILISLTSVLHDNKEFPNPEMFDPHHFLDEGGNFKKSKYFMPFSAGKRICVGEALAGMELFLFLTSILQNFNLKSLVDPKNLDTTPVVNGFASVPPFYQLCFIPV"}, "BJ [8]": {"system": "BJ", "assay": "cytotoxicity toward BJ-TERT-LT-ST fibroblasts, dose response, cell-based, RAS-independent, luminescence (AID 1935);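 further: BJ fibroblasts immortalized with TERT plus LT and ST oncogenes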", "format": "functional", "details": "Homo sapiens"}, "[9]": {"assay": "Luminescence Cell-Based Dose Retest to Confirm Inhibitors of Cancer Stem Cells. [Related pubchem assays (depositor defined):AID2717, AID2721]", "format": "functional", "details": "Homo sapiens"}, "[10]": {"assay": "inhibitors of firefly luciferase expression or activity, dose response, H4 neuroglioma cells, luminescence (AID 1990)", "format": "functional, cell-based"}, "[11]": {"assay": "inhibitors of SNCA 5'UTR-driven reporter translation, confirmation, H4 neuroglioma cells, luminescence (AID 1988)", "format": "functional, cell-based"}, "BJ [12]": {"system": "BJ", "assay": "cells", "format": "functional, cell-based", "details": "Homo sapiens"}, "[13]": {"assay": "cytotoxicity toward DRD oncogenic fibroblasts, dose response, cell-based, non-viral oncogenic, luminescence (AID 1934)", "format": "functional", "details": "Homo sapiens"}, "BJ [14]": {"system": "BJ", "assay": "cytotoxicity toward BJ-TERT fibroblasts, dose response, cell-based, RAS-independent, luminescence (AID 1933)", "format": "functional", "details": "Homo sapiens"}, "[15]": {"assay": "Luminescence Cell-Based Dose Response HTS to Identify Inhibitors of 5'UTR Stem-Loop Driven Prion Protein mRNA Translation in H4 Neuroglioblastoma Cells. [Related pubchem assays: 1827 (Project Summary), 1813 (Primary HTS)]", "format": "functional"}},
  "note": "Activity calls are given as the source filed them.",
  "data": [
    {"compound": "Cc1ccc(S(=O)(=O)Nc2cccc3c2O[C@@H](CN(C)Cc2ccc(C(=O)Nc4ccccc4N)cc2)[C@H](C)CN([C@H](C)CO)C3=O)cc1", "values": [
      {"measurement": "AC50", "setting": "[1]", "result": "3.87 µM (active)"}
    ]},
    {"compound": "Cc1cc(C)nc(Nc2n[nH]c(COc3ccc4ccccc4c3)n2)n1", "values": [
      {"measurement": "AC50", "setting": "Cytochrome P450 2C19", "result": "17.8 µM (inconclusive)"},
      {"measurement": "AC50", "setting": "Cytochrome P450 1A2", "result": "1.12 µM (inconclusive)"},
      {"measurement": "AC50", "setting": "Cytochrome P450 2D6", "result": "inconclusive"}
    ]},
    {"compound": "CCc1ccc(-c2nn(-c3ccccc3)cc2CSC(=N)N)cc1", "values": [
      {"measurement": "EC50", "setting": "[2]", "result": "11.2 µM (active)"},
      {"measurement": "AC50", "setting": "INS1", "result": "8.15 µM (active)"},
      {"measurement": "CC50", "setting": "[3]", "result": "13.7 µM (active)"},
      {"measurement": "EC50", "setting": "BJ [4]", "result": "> 133 µM (inactive)"},
      {"measurement": "EC50", "setting": "[5]", "result": "9.61 µM (active)"}
    ]},
    {"compound": "COc1ccc(NC(=O)Nc2ccc3c(c2)CC(=O)N([C@H](C)CO)C[C@@H](C)[C@@H](CN(C)Cc2ccc(Cl)c(Cl)c2)O3)cc1", "values": [
      {"measurement": "AC50", "setting": "[1]", "result": "3.35 µM (active)"}
    ]},
    {"compound": "CS(=O)(=O)N1CCC2(CCN(C(c3ccccc3)c3ccccc3)CC2)CC1", "values": [
      {"measurement": "AC50", "setting": "Cytochrome P450 3A4", "result": "inconclusive"}
    ]},
    {"compound": "Cc1nn(Cc2noc(C(=O)NC3CCC(C)CC3)n2)c(C)c1Br", "note": "(stereo not drawn)", "values": [
      {"measurement": "AC50", "setting": "[6]", "result": "3.28 µM (active)"},
      {"measurement": "AC50", "setting": "[7]", "result": "6.78 µM (active)"},
      {"measurement": "IC50", "setting": "Protein Wnt-3a", "result": "4.35 µM (active)"}
    ]},
    {"compound": "Cn1cccc1C(=O)N1CCC2(CC1)CCN(c1ccc(-c3ccccc3)cc1)CC2", "values": [
      {"measurement": "AC50", "setting": "Cytochrome P450 1A2", "result": "20 µM (inconclusive)"},
      {"measurement": "AC50", "setting": "Cytochrome P450 3A4", "result": "inconclusive"}
    ]},
    {"compound": "CCOC(=O)C(Sc1ncnc2c1sc1nc(N3CCOCC3)c3c(c12)CCCC3)c1ccccc1", "note": "(stereo not drawn)", "values": [
      {"measurement": "AC50", "setting": "Cytochrome P450 2C9", "result": "0.316 µM (inconclusive)"},
      {"measurement": "AC50", "setting": "Cytochrome P450 2C19", "result": "10 µM (inconclusive)"},
      {"measurement": "AC50", "setting": "Cytochrome P450 3A4", "result": "inconclusive"}
    ]},
    {"compound": "O=Cc1cc2ccccc2nc1SCc1ccc(Cl)cc1", "values": [
      {"measurement": "EC50", "setting": "BJ [8]", "result": "0.434 µM (active)"},
      {"measurement": "AC50", "setting": "[9]", "result": "3.66 µM (active)"},
      {"measurement": "EC50", "setting": "[10]", "result": "9.87 µM (active)"},
      {"measurement": "EC50", "setting": "[11]", "result": "0.724 µM (active)"},
      {"measurement": "EC50", "setting": "BJ [12]", "result": "0.699 µM (active)"},
      {"measurement": "EC50", "setting": "BJ [4]", "result": "0.134 µM (active)"},
      {"measurement": "EC50", "setting": "[13]", "result": "1.1 µM (active)"},
      {"measurement": "EC50", "setting": "BJ [14]", "result": "0.635 µM (active)"},
      {"measurement": "EC50", "setting": "[15]", "result": "0.745 µM (active)"}
    ]}
  ]
}
